Patent US20190022110A1, “AQUEOUS BASED CAPSAICINOID FORMULATIONS AND METHODS OF MANUFACTURE AND USE” (VIZURI HEALTH SCIENCES LLC, priority 2012, published 2019)
Converted amounts (≈) assume the structure as drawn.

Assays:
[1] = in vivo; cited from earlier work
[2] = cited from earlier work
peripheral nociceptors = conditions: cited from earlier work
arthritic knee joints = test: Clinical study: corticosteroid pretreatment and pain due to intra-articular capsaicin injection; type: in vivo, human
Procedure: This study examined the administration of a corticosteroid as an adjunctive agent prior to the administration of capsaicin to attenuate the burning and stinging effect resulting for the intra-articular injection of capsaicin into the knee joint.
Tests were conducted to evaluate the effectiveness of a corticosteroid injection into a site prior to injection of a capsaicin formulation. Subjects with arthritic knee joints were selected and treated as follows: • The knee joint to be treated was cleaned with Betadine or other suitable antiseptic agent. • A […].
Procedures and resulting pain level experienced by the injection of subjects injected with a 0.2 mg dose level of the capsaicin formulation as a function of elapsed time are summarized in Tables IX to XV. […] A description of the 6 knees treated with the capsaicin injections follows.

physchem = conditions: for solubility: aqueous with cosolvent or surfactant or cyclodextrin
Procedure: The teachings of this application were utilized in solubilizing capsaicin in a high purity PS 80 obtained from Croda Inc.
• 1. 10 grams of PS 80 are added to a 50 ml “Pyrex” glass vial. • 2. 2 grams of Trans-Capsaicin are added to the PS 80 in Step 1. • 3. The mixture from Step 2 is heated to ˜55° C. to dissolve the Trans-Capsaicin and form the Trans-Capsaicin/PS80 concentrate.

[3] = knee #1, patient #1, Depo-Medrol, no Lidocaine, 0.2 mg capsaicin
[4] = knee #2, patient #2, Depo-Medrol, Lidocaine, 0.2 mg capsaicin
[5] = knee #3, patient #3, Depo-Medrol, Lidocaine, 0.2 mg capsaicin
[6] = knee #4, patient #4 left, Depo-Medrol, gel pack, Lidocaine, 0.2 mg capsaicin
[7] = knee #5, patient #4 right, no corticosteroid, Lidocaine, 0.2 mg capsaicin
[8] = knee #6, patient #1 right, Depo-Medrol, cold pack, Lidocaine, 0.2 mg capsaicin

Molecule: Polyethylene glycol [PEG]
- systemic absorption [1]: less than 0.5%

Molecule: CC1CCC(C(C)C)C(O)C1 (stereo not drawn) [Menthol]
- Aqueous Soluble [2]: slightly
- Oil Soluble [2]: soluble

Molecule: CCO [Ethyl Alcohol]
- Aqueous Soluble [2]: miscible
- Oil Soluble [2]: soluble

Molecule: CCCNC(C)C(=O)Nc1ccccc1C (stereo not drawn) [Prilocaine]
- Aqueous Soluble [2]: sparingly
- Oil Soluble [2]: soluble

Molecule: CCOC(=O)c1ccc(N)cc1 [Benzocaine]
- Aqueous Soluble [2]: sparingly
- Oil Soluble [2]: soluble

Molecule: COc1cc(CNC(=O)CCCC/C=C/C(C)C)ccc1O [Capsaicin]
- duration of subsequent mild pain (peripheral nociceptors; injectable capsaicin formulations, after the intense B&S pain): 1 to 2 h
- duration of intense burning and stinging (B&S) pain (peripheral nociceptors; injectable capsaicin formulations): up to 1 hour
- persistence of spontaneous burning pain and hyperalgesia (peripheral nociceptors; upon capsaicin injection in clinical trials): up to 60 minutes
- pain status of treated knees as of the date of filing (arthritic knee joints; all patients, 0.2 mg capsaicin intra-articular): remain pain free
- duration pain free (arthritic knee joints; in one case): over 3 weeks
- duration of extreme pain following capsaicin injection (arthritic knee joints; [3]): about 1 hour
- relief of arthritic pain symptoms (arthritic knee joints; [3]): significant relief of their arthritic pain symptoms
- time of procedure until relief of arthritic pain symptoms (arthritic knee joints; [3]): ~80 min
- relief of arthritic pain symptoms (arthritic knee joints; [4]): complete relief of their osteoarthritic pain symptoms
- time until procedure completed and pain relief (arthritic knee joints; [4]): about 30 minutes
- relief of arthritic pain symptoms (arthritic knee joints; [5]): complete relief for their painful arthritic symptoms
- time until procedure concluded and pain relief (arthritic knee joints; [5]): about 23 minutes
- relief of arthritic pain symptoms (arthritic knee joints; [6]): complete relief of their painful severe osteoarthritis pain
- time pain level remained at a mild level before complete relief (arthritic knee joints; [6]): about 13 minutes
- relief of arthritic pain symptoms (arthritic knee joints; [7]): alleviated their painful arthritic symptoms
- time until arthritic symptoms alleviated (arthritic knee joints; [7]): ~25 min
- relief of arthritic pain symptoms (arthritic knee joints; [8]): complete relief of their painful arthritic symptoms
- time until procedure concluded and pain relief (arthritic knee joints; [8]): about 17 minutes
- capsaicin concentration achieved in PS 80 (physchem): 200 mg/mL
- capsaicin solubility with PEG-400 compared to PS80 (physchem): did not achieve the capsaicin solubility levels
- supersaturation of Capsaicin/PS 80 solution (physchem): not supersaturated
- dissolution of capsaicin without pre-formed concentrate (physchem; PS 80 and capsaicin added to water, then heated to ~70° C.-90° C.): only a fraction of the capsaicin dissolving
- solubility (physchem; aqueous capsaicin solubility level): 20000 µg/mL (≈ 65.5 mM)
- solubility (physchem; aqueous capsaicin solubility level, 2 ml capsaicin/PS 80 concentrate added to 98 grams of ~70° C. water, cooled to room temperature): 4000 µg/mL (≈ 13.1 mM)
- solubility (physchem; increase of aqueous solubility of capsaicin): ~1000 µg/mL (≈ 3.27 mM)
- Aqueous Soluble [2]: insoluble
- Oil Soluble [2]: soluble
